Activity calls are given as the source filed them. No cut-off for these calls is given here.
Tests used:
[1] = target: AP2-associated protein kinase 1 (Homo sapiens) (UniProt Q2M2I8); details: Compound concentration 1000.0 nM
[2] = system: Tyrosine-protein kinase ABL1 (Homo sapiens), P00519 [F317I]; details: Compound concentration 1000.0 nM
[3] = target: Activin receptor type-1B (Homo sapiens) (UniProt P36896); details: Compound concentration 1000.0 nM
[4] = system: Epidermal growth factor receptor (Homo sapiens), P00533 [L861Q]; details: Compound concentration 1000.0 nM
[5] = target: Ephrin type-B receptor 2 (Homo sapiens) (UniProt P29323); details: Compound concentration 1000.0 nM
[6] = target: Mitogen-activated protein kinase 1 (Homo sapiens) (UniProt P28482); details: Compound concentration 1000.0 nM
Mitogen-activated protein kinase 1 (Homo sapiens), sequence (P28482 whole entry): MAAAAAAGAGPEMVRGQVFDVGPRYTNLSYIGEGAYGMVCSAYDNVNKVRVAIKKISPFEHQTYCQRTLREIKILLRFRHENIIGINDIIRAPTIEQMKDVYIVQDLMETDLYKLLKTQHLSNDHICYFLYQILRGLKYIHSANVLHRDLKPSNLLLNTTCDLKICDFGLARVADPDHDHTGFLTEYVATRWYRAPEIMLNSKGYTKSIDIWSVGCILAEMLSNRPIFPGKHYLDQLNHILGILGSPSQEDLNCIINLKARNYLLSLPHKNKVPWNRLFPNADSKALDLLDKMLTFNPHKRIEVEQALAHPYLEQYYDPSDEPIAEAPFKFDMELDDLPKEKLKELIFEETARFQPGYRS

[7] = target: Mitogen-activated protein kinase kinase kinase 13 (Homo sapiens) (UniProt O43283); details: Compound concentration 1000.0 nM
[8] = target: Tyrosine-protein kinase Mer (Homo sapiens) (UniProt Q12866); details: Compound concentration 1000.0 nM
Tyrosine-protein kinase Mer (Homo sapiens), sequence (Q12866 whole entry): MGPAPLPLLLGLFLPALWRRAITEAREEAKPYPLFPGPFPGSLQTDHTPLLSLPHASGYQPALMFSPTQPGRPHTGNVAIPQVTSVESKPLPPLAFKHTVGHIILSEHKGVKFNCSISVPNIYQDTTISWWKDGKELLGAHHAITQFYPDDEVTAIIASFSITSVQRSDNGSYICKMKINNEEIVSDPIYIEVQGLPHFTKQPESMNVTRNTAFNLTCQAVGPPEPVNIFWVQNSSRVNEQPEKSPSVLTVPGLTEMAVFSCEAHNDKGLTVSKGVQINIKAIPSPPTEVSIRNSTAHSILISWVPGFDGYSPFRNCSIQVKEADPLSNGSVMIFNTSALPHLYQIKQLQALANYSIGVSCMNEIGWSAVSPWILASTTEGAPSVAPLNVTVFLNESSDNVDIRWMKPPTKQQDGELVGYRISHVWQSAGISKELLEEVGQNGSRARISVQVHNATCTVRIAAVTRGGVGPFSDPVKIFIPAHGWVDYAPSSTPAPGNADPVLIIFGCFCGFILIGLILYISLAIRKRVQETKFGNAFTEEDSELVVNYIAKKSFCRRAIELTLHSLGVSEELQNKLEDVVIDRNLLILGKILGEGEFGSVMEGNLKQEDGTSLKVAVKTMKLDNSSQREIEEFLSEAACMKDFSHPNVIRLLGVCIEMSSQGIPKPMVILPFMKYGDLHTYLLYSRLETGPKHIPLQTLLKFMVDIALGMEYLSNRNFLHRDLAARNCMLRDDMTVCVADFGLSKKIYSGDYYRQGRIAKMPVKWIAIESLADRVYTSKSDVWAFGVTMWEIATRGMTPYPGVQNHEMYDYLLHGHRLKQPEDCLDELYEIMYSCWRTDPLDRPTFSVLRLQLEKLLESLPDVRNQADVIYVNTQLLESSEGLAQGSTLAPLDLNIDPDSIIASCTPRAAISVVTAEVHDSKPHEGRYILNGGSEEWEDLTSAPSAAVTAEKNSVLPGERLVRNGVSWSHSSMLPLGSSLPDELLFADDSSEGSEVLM

[9] = system: Hepatocyte growth factor receptor (Homo sapiens), P08581 [Y1235D]; details: Compound concentration 1000.0 nM
[10] = target: Serine/threonine-protein kinase Nek4 (Homo sapiens) (UniProt P51957); details: Compound concentration 1000.0 nM
[11] = target: Protein kinase C iota type (Homo sapiens) (UniProt P41743); details: Compound concentration 1000.0 nM
Protein kinase C iota type (Homo sapiens), sequence (P41743 whole entry): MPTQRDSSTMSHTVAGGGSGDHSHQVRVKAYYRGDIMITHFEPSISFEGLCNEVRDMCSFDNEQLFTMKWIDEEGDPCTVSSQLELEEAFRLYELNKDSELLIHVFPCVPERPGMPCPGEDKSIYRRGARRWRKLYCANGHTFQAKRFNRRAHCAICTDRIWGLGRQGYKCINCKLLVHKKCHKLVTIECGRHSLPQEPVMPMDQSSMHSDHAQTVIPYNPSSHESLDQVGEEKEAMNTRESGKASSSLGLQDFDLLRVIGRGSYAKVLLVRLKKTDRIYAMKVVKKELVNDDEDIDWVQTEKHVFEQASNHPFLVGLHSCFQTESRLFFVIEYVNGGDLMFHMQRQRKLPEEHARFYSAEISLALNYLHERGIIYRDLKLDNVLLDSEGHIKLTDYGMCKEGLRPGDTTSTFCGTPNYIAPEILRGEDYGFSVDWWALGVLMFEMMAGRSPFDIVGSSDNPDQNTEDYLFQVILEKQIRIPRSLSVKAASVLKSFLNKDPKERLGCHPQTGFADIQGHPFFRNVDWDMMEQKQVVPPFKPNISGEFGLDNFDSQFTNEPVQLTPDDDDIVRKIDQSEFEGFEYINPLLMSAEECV

[12] = target: Serine/threonine-protein kinase TAO1 (Homo sapiens) (UniProt Q7L7X3); details: Compound concentration 1000.0 nM
Serine/threonine-protein kinase TAO1 (Homo sapiens), sequence (Q7L7X3 whole entry): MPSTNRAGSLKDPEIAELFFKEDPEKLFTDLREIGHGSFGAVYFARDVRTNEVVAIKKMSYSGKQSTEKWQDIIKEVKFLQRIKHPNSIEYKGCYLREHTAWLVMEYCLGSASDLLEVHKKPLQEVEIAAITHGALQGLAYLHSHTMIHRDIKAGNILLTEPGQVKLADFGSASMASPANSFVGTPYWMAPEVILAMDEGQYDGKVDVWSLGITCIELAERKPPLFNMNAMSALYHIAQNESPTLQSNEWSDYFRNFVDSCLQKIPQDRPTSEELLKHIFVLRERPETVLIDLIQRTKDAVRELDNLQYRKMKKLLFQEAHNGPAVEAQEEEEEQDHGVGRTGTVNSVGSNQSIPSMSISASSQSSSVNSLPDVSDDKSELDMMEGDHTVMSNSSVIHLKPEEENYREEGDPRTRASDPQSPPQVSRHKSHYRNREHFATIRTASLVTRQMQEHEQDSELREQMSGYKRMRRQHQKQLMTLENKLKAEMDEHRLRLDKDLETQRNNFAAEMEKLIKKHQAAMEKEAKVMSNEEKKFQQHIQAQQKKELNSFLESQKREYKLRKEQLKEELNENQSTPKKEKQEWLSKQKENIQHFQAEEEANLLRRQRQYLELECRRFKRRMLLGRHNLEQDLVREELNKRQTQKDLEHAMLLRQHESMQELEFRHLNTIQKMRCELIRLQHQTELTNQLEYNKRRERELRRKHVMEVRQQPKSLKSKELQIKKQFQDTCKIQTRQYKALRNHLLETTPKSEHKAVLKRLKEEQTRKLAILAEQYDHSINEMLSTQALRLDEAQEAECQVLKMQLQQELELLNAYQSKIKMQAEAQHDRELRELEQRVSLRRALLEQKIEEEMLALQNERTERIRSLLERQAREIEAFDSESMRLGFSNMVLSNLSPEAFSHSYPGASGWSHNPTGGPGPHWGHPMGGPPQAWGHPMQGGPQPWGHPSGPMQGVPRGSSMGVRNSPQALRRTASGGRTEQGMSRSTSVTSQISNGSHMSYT

[13] = target: D(1A) dopamine receptor (Homo sapiens) (UniProt P21728); details: Compound concentration 10.0 uM
D(1A) dopamine receptor (Homo sapiens), sequence (P21728 whole entry): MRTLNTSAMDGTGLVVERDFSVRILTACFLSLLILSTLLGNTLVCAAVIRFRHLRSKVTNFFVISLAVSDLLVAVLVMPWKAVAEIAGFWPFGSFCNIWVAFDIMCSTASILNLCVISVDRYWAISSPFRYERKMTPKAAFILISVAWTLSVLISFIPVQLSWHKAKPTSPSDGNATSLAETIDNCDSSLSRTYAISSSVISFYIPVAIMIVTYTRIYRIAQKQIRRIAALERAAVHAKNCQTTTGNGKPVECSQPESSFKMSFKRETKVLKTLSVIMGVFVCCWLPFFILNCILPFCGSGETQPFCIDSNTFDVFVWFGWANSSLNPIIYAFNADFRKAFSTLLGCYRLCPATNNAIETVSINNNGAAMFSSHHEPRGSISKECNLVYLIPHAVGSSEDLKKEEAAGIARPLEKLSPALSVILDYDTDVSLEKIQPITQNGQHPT

[14] = target: D(3) dopamine receptor (Homo sapiens) (UniProt P35462); details: Compound concentration 10.0 uM
[15] = target: GABA-A receptor; anion channel (Rattus norvegicus) (UniProt O09028+P15431+P18506+P18508+P19969+P20236+P23574+P23576+P28471+P28473+P30191+P62813+P63079+P63138+Q91ZM7+Q9ES14); details: Compound concentration 10.0 uM
[16] = target: Sigma non-opioid intracellular receptor 1 (Homo sapiens) (UniProt Q99720); details: Compound concentration 10.0 uM
[17] = target: Adenosine receptor A3 (Homo sapiens) (UniProt P0DMS8); test: A3/H Eurofins-Panlabs selectivity data (BI); details: Compound concentration 10.0 uM
[18] = target: T1, Alpha-1A adrenergic receptor (Homo sapiens) (UniProt P35348); test: ALPHA1A/R Eurofins-Panlabs selectivity data (BI); details: Rattus norvegicus; Compound concentration 10.0 uM
T1 sequence (whole entry): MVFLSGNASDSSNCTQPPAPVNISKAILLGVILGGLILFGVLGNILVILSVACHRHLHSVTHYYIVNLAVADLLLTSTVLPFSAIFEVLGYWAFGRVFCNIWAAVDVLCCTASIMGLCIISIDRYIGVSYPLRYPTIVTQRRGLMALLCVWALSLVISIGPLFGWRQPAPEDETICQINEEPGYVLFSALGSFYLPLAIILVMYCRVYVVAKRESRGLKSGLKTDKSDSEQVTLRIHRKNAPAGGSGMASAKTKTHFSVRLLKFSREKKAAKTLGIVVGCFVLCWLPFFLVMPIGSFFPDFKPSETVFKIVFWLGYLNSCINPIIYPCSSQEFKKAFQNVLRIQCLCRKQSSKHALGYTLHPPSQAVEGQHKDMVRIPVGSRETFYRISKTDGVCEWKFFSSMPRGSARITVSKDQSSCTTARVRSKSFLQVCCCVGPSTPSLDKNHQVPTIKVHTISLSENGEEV

[19] = target: Beta-1 adrenergic receptor (Homo sapiens) (UniProt P08588); test: BETA1/HU Eurofins-Panlabs selectivity data (BI); details: Compound concentration 10.0 uM
Beta-1 adrenergic receptor (Homo sapiens), sequence (P08588 whole entry, looked up): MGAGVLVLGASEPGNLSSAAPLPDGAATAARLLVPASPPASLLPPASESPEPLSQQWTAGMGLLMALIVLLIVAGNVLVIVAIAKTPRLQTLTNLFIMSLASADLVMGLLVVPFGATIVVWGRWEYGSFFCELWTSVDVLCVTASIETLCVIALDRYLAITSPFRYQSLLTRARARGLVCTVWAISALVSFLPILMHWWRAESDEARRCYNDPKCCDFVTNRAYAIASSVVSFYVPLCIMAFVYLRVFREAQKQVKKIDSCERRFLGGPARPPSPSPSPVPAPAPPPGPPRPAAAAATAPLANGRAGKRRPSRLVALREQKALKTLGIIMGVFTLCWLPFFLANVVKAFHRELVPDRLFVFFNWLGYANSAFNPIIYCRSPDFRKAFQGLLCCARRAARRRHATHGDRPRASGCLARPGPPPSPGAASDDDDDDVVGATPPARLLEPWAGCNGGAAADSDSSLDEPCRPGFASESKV

[20] = target: D(1A) dopamine receptor (Homo sapiens) (UniProt P21728); test: D1/HU Eurofins-Panlabs selectivity data (BI); details: Compound concentration 10.0 uM
[21] = target: T2, D(4) dopamine receptor (Homo sapiens) (UniProt P21917); test: D4.2/H Eurofins-Panlabs selectivity data (BI); details: Compound concentration 10.0 uM
T2 sequence (whole entry): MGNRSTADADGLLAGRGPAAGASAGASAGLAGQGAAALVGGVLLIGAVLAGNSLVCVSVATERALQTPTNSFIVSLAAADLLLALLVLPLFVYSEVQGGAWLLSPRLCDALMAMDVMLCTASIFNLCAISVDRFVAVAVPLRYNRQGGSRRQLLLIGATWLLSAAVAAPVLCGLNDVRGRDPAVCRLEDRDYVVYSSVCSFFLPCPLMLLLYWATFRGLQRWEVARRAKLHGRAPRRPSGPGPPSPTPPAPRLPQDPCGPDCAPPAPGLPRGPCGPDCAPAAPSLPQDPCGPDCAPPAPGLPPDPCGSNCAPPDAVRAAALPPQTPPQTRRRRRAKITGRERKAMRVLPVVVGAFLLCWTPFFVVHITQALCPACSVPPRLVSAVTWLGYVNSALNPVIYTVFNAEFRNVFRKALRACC

[22] = target: Sodium-dependent dopamine transporter (Homo sapiens, UniProt Q01959); test: DATRANS/H Eurofins-Panlabs selectivity data (BI); details: Compound concentration 10.0 uM
[23] = target: Prostaglandin E2 receptor EP4 subtype (Homo sapiens) (UniProt P35408); test: EP4/H Eurofins-Panlabs selectivity data (BI); details: Compound concentration 10.0 uM
[24] = target: Estrogen receptor (Homo sapiens) (UniProt P03372); test: ERALPHA/H Eurofins-Panlabs selectivity data (BI); details: Compound concentration 10.0 uM
[25] = target: Endothelin receptor type B (Homo sapiens) (UniProt P24530); test: ETB/HUM Eurofins-Panlabs selectivity data (BI); details: Compound concentration 10.0 uM
[26] = target: Histamine H2 receptor (Homo sapiens) (UniProt P25021); test: H2/H Eurofins-Panlabs selectivity data (BI); details: Compound concentration 10.0 uM
[27] = target: Histamine H3 receptor (Homo sapiens) (UniProt Q9Y5N1); test: H3/H Eurofins-Panlabs selectivity data (BI); details: Compound concentration 10.0 uM
[28] = target: Protein kinase C alpha type (Mus musculus) (UniProt P20444); test: PHORBOLE/M Eurofins-Panlabs selectivity data (BI); details: Compound concentration 10.0 uM
[29] = target: Thyroid hormone receptor alpha (Rattus norvegicus) (UniProt P63059); test: THYROID HORM Eurofins-Panlabs selectivity data (BI); details: Compound concentration 10.0 uM
[30] = target: Beta-1 adrenergic receptor (Homo sapiens) (UniProt P08588); details: Compound concentration 10.0 uM
[31] = target: Melatonin receptor type 1A (Homo sapiens) (UniProt P48039); details: Compound concentration 10.0 uM
[32] = target: Glutamate receptor ionotropic, NMDA 2A (Rattus norvegicus) (UniProt Q00959); details: Compound concentration 10.0 uM
[33] = Human platelet swelling inhibition (hPSA) assay

AP2-associated protein kinase 1 (Homo sapiens), sequence (Q2M2I8 whole entry, looked up): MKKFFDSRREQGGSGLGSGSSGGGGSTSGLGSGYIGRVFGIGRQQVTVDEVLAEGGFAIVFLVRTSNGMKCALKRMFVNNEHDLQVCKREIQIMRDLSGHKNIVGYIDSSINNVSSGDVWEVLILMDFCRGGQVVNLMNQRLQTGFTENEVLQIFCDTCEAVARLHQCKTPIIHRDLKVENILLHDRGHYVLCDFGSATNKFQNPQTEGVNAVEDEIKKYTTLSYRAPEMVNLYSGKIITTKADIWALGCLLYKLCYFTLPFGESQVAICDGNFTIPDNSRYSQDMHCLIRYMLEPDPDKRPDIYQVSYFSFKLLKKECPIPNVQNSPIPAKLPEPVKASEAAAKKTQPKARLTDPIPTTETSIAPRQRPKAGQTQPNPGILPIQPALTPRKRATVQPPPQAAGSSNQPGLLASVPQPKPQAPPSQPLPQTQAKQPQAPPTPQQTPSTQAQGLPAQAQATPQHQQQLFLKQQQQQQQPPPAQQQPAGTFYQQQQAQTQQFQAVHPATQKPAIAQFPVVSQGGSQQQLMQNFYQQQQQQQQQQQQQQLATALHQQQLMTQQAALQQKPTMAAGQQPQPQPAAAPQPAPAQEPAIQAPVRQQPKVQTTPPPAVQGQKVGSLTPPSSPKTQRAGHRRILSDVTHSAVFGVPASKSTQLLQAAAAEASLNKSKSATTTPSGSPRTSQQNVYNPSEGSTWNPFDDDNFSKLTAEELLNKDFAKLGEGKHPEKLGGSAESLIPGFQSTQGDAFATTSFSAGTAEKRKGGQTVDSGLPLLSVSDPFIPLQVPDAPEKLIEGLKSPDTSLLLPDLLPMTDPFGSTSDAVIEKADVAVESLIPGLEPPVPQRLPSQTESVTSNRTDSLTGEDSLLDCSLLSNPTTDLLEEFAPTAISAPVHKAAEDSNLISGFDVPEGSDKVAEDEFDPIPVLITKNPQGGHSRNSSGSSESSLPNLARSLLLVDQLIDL

SMILES	residual activity [1]	residual activity [2]	residual activity [3]	residual activity [4]	residual activity [5]	residual activity [6]	residual activity [7]	residual activity [8]	residual activity [9]	residual activity [10]	residual activity [11]	residual activity [12]	inhibition [15]	further results
CC(=O)N1CCC(c2ccc(C(=O)NC3=NCCN3)cc2C(F)(F)F)CC1 [BI 0054]	100%	94%	100%	100%	82%	100%	100%	100%	100%	100%	83%	100%	25.3%	inhibition [13]: 4.8%; inhibition [14]: -7.75%; inhibition [16]: -8.45%
CC(=O)N1CCC(c2ccc(C(=O)NC(=N)N)cc2C(F)(F)F)CC1 [BI 9627]	100%	96%	93%	91%	100%	96%	100%	81%	100%	100%	100%	100%	13.9%	residual activity [17]: 105%; residual activity [18]: 86%; residual activity [19]: 102%; residual activity [20]: 94%; residual activity [21]: 105%; residual activity [22]: 101%; residual activity [23]: 99%; residual activity [24]: 106%; residual activity [25]: 114%; residual activity [26]: 103%; residual activity [27]: 109%; residual activity [28]: 101%; residual activity [29]: 93%; inhibition [30]: -9.29%; residual activity [31]: 96%; residual activity [32]: 96%; IC50 [33]: 31 nM (active)

Source: ChEMBL document CHEMBL4507279, “Data for DCP probe BI-9627” (2021)
